Entries after “also recorded” stand apart in the source; their conditions may differ. Structures can show the parent of a compound that is named as a salt.
Legend:
[1] = test system: scar tissue after excision of dermal tissue; assay: Rodent injury model; type: in vivo, mice; details: 1% solution topical
Description: Mice received injury by excision of dermal tissue. In the treatment group, 1% Compound 1 solution was applied topically from 24 hours post injury to 1 week post injury. Wounds were then left to heal for an additional week. Mice were euthanized at 14 days post injury and the tissue was analyzed for collagen I content, and changes in gross morphology and histology.

[2] = test system: deep dermal burn injuries; assay: Porcine burn injury model; type: in vivo, pigs; details: 3% topical daily for 4 weeks
Description: Pigs received 4×25 cm^2 deep dermal burn injuries, 2 on each flank. From the time of re-epithelialisation, on each pig, 2 wounds were treated with 3% Compound 1 cream daily for 4 weeks and 2 received control cream. Pigs were euthanized and tissue was processed for analysis.

[3] = target: rhSSAO (Homo sapiens (Human), UniProt Q16853); assay: Measurement of substrate turnover by SSAO; type: biochemical; details: compound 2.5 mM, relative to background (dimethyl sulfoxide only)
rhSSAO, sequence (Q16853 whole entry): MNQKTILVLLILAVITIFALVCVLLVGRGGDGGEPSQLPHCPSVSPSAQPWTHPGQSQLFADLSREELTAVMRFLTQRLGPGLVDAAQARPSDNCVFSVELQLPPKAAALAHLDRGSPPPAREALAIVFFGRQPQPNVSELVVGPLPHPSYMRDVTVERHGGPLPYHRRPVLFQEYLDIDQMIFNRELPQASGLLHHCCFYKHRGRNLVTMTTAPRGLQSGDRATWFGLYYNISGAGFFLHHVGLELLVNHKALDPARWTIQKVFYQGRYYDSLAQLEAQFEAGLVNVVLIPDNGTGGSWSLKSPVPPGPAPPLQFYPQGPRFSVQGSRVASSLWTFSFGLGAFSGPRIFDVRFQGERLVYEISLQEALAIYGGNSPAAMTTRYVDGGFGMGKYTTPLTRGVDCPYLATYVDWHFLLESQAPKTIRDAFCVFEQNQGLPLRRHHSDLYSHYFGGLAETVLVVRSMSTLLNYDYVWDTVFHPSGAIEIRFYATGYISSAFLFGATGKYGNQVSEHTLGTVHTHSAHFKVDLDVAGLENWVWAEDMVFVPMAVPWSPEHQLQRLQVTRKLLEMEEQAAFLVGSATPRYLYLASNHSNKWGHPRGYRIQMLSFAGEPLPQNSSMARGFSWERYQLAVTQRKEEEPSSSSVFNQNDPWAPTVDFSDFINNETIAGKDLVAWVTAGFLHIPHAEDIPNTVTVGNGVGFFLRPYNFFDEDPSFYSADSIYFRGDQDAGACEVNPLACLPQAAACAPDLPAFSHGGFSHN
Description: In brief, the assay employed determines the substrate propensity of a compound relative to background (dimethyl sulfoxide only). Compound oxidation by rhSSAO was measured by fluorometric assay (Holt and Palcic, 2006). Briefly, rhSSAO was incubated for 2 hours at 37° C. in HEPES buffer before the addition of an equal volume of Amplex Red ([…]), horseradish peroxidase (4 U/ml), and Compound (2.5 mM) in the same buffer. The kinetics of the formation of resorufin was measured immediately using Optima reader (BMG Labtech GmbH, Ortenburg, Germany), at 37° C.

[4] = test system: kidney fibrosis (UUO); assay: Unilateral ureteral obstruction (UUO) model of acute kidney fibrosis; type: in vivo, mice; details: 10 mg/kg daily orally, 14 days
Description: A 14-day unilateral ureteric obstruction (UUO) model of acute kidney fibrosis in mice was conducted to mimic the different stages of obstructive nephropathy leading to tubulointerstitial fibrosis in an accelerated manner UUO surgery was performed by ligation of the left ureter and induced decrease of left kidney thickness and atrophy (indicated by a significant decrease in kidney weight and ratio of kidney/body weight when compared to the contralateral side) as well as a significant increase in kidney fibrosis. Treatment groups received Compound 33 (10 mg/kg daily) orally for the duration of the study. Compound 33 increased kidney weight and thickness and reduced the area of fibrosis as measured by Picrosirius Red (FIG. 9). Captopril (˜32 mg/kg/day in drinking water) was used as a positive control.

[5] = test system: CCl4 hepatic fibrosis / 4t1 metastasis; assay: CCl4 induced liver fibrosis with orthotopic 4t1 breast cancer cells (fibrosis associated metastasis); type: in vivo, BALB/c mice; details: 20 mg/kg daily ip
Description: Hepatic fibrosis was induced by treated of BALB/c mice twice weekly with 1 mg/kg carbon tetrachloride (CCl4) for a period of 8 wks.

[6] = test system: lysyl oxidase; assay: Target engagement: lysyl oxidase activity in the aorta; type: in vivo, Wistar rats
Description: Sample preparation: All preparation activities were performed on ice, with buffers in presence of proteases inhibitors (PMSF: Sigma P7626, 0.25 mM, Aprotinin: Sigma A6279, 1 μL per mL) (Methods in Cell Biology, 2018; 143: 147-156). The surrounding adventitia and muscle/fat from the frozen aorta sample was removed in ice-cold Wash Buffer (0.15 M NaCl, 50 mM sodium borate, pH=8.0, with protease inhibitors) using fine forceps, under a dissecting microscope. The aorta was blotted on a Kimwipe and weighed in a 1.5 mL Eppendorf tube and left on ice. After snap-freezing the aorta in liquid nitrogen, a mortar and the pestle (stored at −80° C.) was used to pulverize the tissue. The pulverized tissue was transferred to a designated tube containing metal beads, 10× v/w Wash Buffer+protease inhibitors. The tissues was homogenized for 5 seconds using a bead-mill. The homogenate was centrifuged at 10,000×g for 10 minutes at 4° C. and the supernatant was discarded. Homogenization and washing steps were repeated twice more. […]
Assay: Pargyline (final concentration 0.5 mM) and mofegiline (final concentration 1 μM) were added to the samples. […] Plate fluorescence was then measured every 2.5 min (Ex: 544 nm/Em: 590 nm/gain: 1260; 37° C.) on Fluostar™.
[…] The responses were normalised to the activity measured in animals treated with saline (control).

[7] = test system: bleomycin-induced lung fibrosis; assay: Bleomycin-induced lung fibrosis model; type: in vivo, C57Bl/6 mice; details: daily oral gavage for 21 days
Description: C57Bl/6 mice were given 1.5 U/kg amounts of generic clinical Bleomycin (Blenoxane) via oropharyngeal administration. Compound 33 was dosed daily via oral gavage for 21 days, after which time, tissues were harvested and analyzed.

[8] = vs control cream, hydrochloride

Row | SMILES | Collagen I quantity (LCMS, normalized for protein content) ([1]; 24 hours to 1 week post injury, analysis 14 days post injury, vs control, hydrochloride) | Histology: collagen bundles in scar tissue ([1]; 14 days post injury) | Gross morphology and histology: thick collagen fibers [2] | LOX activity in treated tissue [2, 8] | total collagen I protein [2, 8] | Substrate activity for rhSSAO [3] | area of fibrosis as measured by Picrosirius Red [4] | kidney weight and thickness [4] | collagen cross-links in the liver [5] | primary tumor growth or collagen cross-links (primary tumor) [5] | liver fibrosis ([5]; 8 wks CCl4) | metastatic load in the liver ([5]; dihydrochloride) | half-life of recovery of lysyl oxidase activity (aorta) ([6]; single oral dose) [h] | lysyl oxidase enzymatic activity in rat aorta ([6]; single oral dose at 5, 10 or 30 mg/kg, vs untreated control) | lung weight [7] | reduction of immature (DHLNL) cross-links per lung [7] [%] | reduction of mature (PYD) cross-links per lung [7] [%] | Ashcroft score ([7]; dihydrochloride)
1 | NC/C=C(\F)CS(=O)(=O)c1ccccc1 [Compound 1, (Z)-3-fluoro-4-(phenylsulfonyl)but-2-en-1-amine hydrochloride] | reduction in collagen; also recorded: reduced | decreased density of bundles | reduced density | reduction; also recorded: significantly reduced | reduction; also recorded: significantly reduced | no significant turnover |  |  |  |  |  |  |  |  |  |  |  | 
2 | NC/C=C(\F)CS(=O)(=O)c1cccc2cccnc12 [Compound 33, (Z)-3-fluoro-4-(quinolin-8-ylsulfonyl)but-2-en-1-amine dihydrochloride] |  |  |  |  |  |  | reduced | increased | significantly reduced | No differences | significantly reduced | reduce; also recorded: significantly reduced | 24 | dose-dependent block | significantly reduced | 37 | 45 | reduce; also recorded: significantly reduced

Reference: patent US12178791B2, “Haloallylamine sulfone derivative inhibitors of lysyl oxidases and uses thereof” (Syntara Limited, priority 2018, dated 2024)
